{"source": "patent US20060143838A1", "about": "“Herbal dye and process of preparation thereof” (COUNCIL OF SCIENTIFIC & INDUSTRIAL RESEARCH, priority 2004, published 2006)", "key": {"Candida albicans": {"test_system": "Candida albicans", "assay": "Antifungal activity of herbal black dye (disc, inhibition zone)", "type": "cell-based", "settings": "25 mg/disc"}, "Aspergillus niger": {"test_system": "Aspergillus niger", "assay": "Antifungal activity of herbal black dye (disc, inhibition zone)", "type": "cell-based", "settings": "25 mg/disc"}}}
{"smiles": "COC1=CC(=O)C[C@@H](C)[C@]12Oc1c(Cl)c(OC)cc(OC)c1C2=O", "note": "[Griseofulvin]", "values": [{"measurement": "inhibition zone", "setting": "Candida albicans", "value": 8, "unit": "mm"}, {"measurement": "inhibition zone", "setting": "Aspergillus niger", "value": 10, "unit": "mm"}]}
